Here are results for one compound from paper PMC8262977, “A Dual-Specificity Inhibitor Targets Polyphosphate Kinase 1 and 2 Enzymes To Attenuate Virulence of Pseudomonas aeruginosa” (mBio, 2021).

One data set concerns the target T1, P. aeruginosa PPK2A (Pseudomonas aeruginosa, UniProt Q9I6Z1).
T1 construct: residues P9 to P289; MBP (N, cleaved yes); His tag (N, cleaved yes); made in house; host or cells: E. coli BL21(DE3)
Nature of the data set: PPK2A ADP phosphorylation by polyP (ATP synthesis), toluidine blue detection. It is filed as biochemical. Conditions: ATP synthesis from ADP and polyP; 275 nM enzyme; read-out: IC50 PPK2A. The procedure: (§1) All IC50 and kinetic assay mixtures contained equimolar amounts (275 nM) of PPK to ensure valid comparison between different enzymes. PolyP synthesis activity (for PPK1 and PPK2B) was assayed using the reaction buffer and conditions described above. ATP concentration was varied as indicated for kinetic experiments. Curves were fit using GraphPad Prism V9.
(§2) Nucleotide phosphorylation activity of PPK2 enzymes was assayed in buffer containing 50 mM Tris-HCl, pH 7.5, 10 mM (NH4)2SO4, 10 mM MgCl2, 5 mM polyP45 (Sigma; in terms of individual Pi monomers), and nucleotide (ADP or AMP) at 5 mM for IC50 reactions or as indicated for kinetic experiments. Enzyme was added to a final concentration of 275 nM in 100-μl reaction volumes. One-hundred-microliter reaction mixtures were incubated at 37°C for 30 min, and then 5-μl aliquots were withdrawn and added to 1,000 μl of 6-mg/liter toluidine blue dissolved in 40 mM acetic acid to quench the reaction and quantify the polyP that remained. The A630/530 nm ratio was then recorded, and the values obtained were corrected by subtracting the corresponding blanks (all ingredients except enzyme). The amount of polyP consumed was calculated by subtracting the amount present after reaction from that present in the initial reaction mix, as calculated via a standard curve. Each monomer of Pi consumed from polyP equates to one nucleoside phosphorylated. Curves were fit using GraphPad Prism V9.

A further data set has as its target T2, P. aeruginosa PPK2C (Pseudomonas aeruginosa, UniProt Q9HYF1).
T2 construct: MBP (N, cleaved yes); His tag (N, cleaved yes); made in house; host or cells: E. coli BL21(DE3)
Description: PPK2C AMP phosphorylation by polyP (ADP synthesis), toluidine blue detection. It counts as biochemical. Conditions: ADP synthesis from AMP and polyP; 275 nM enzyme; read-out: IC50 PPK2C. On the procedure: as §1, §2

In data set [1] the test system is P. aeruginosa PA14. Description: Biofilm assay, crystal violet staining. It is filed as cell-based, Pseudomonas aeruginosa. On the procedure:
P. aeruginosa biofilms were quantified as described previously ([54]). Briefly, M63 medium supplemented with 1 mM MgSO4 and 0.4% arginine as the sole carbon source was colony inoculated with PA14. Biofilms were allowed to form in 96-well tissue culture plates (U-bottom; Sarstedt) at 37°C for 16 h. Wells were washed twice with sterile water. Biofilm rings were stained with 0.1% crystal violet, washed twice with water, and then solubilized in 30% acetic acid to record absorbance at 570 nm.

For data set [2], the system named is P. aeruginosa PA14. Nature of the data set: Swimming motility assay. It is filed as cell-based, Pseudomonas aeruginosa. On the procedure:
Swimming motility plates consisted of 0.3% (wt/vol) Bacto agar (Becton Dickinson) and 2.5% (wt/vol) LB (Miller; Bioshop). Where indicated, 100 μM compound or an equivalent volume of DMSO was added to the agar prior to pouring. Plates were stab inoculated with a pipette tip dipped in overnight LB culture. Plates were incubated in sealed Tupperware at 30°C for 18 h, and swimming diameter was imaged and measured electronically.

The next data set concerns P. aeruginosa. Description: C. elegans liquid killing (LK) infection assay. It is filed as in vivo, Caenorhabditis elegans. Conditions: 100 μM gallein. The procedure: Wild-type N2 C. elegans and the glp-4 conditionally sterile mutant strain were obtained from the Caenorhabditis Genetics Center. Liquid killing assays were conducted using glp-4 mutant worms as described previously ([35]), with the exception of survival being scored manually under a Zeiss light microscope instead of via Sytox Orange staining. Nematodes were scored as dead when they no longer moved when tapped. Solid killing was conducted using glp-4 as described previously ([34]), with the indicated concentration of inhibitor impregnated into the SK agar. Bacterial CFU accumulation in WT N2 worms was quantified as described previously ([56]). Briefly, age-synchronized embryos were spotted onto bacterium-seeded nematode growth medium (NGM) agar plates impregnated with inhibitor or DMSO. Embryos were incubated at 25°C for 3 days, after which point adult worms were harvested, washed, lysed, and enumerated for CFU.

Details of data set [3]: method as in PMID 29084601, PMID 24703913, PMID 30024944. As to conditions: rats, 5 to 10 mg/kg of body weight daily for up to 8 weeks; cited from earlier work.
[4] abbreviates: WT: DMSO control vs 100 µM gallein.
Setting [5] is: Δppk1, 2a, 2b, 2c: DMSO control vs 100 µM gallein.
Setting [6] is: Δppk1: DMSO control vs 100 µM gallein.
The mark [7] stands for this setting: Δppk2a, 2b, 2c: DMSO control vs 100 µM gallein.

Broadly, the IC50 is the concentration that inhibits the measured activity by half.

T1 sequence (Q9I6Z1 68-348): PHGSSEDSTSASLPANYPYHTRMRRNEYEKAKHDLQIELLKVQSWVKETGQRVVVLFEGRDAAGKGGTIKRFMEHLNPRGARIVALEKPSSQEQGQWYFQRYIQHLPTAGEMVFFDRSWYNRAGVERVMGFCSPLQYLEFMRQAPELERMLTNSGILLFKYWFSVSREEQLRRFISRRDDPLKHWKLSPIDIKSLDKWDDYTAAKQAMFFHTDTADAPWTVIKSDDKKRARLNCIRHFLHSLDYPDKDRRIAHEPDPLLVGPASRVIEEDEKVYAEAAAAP
T2 sequence (Q9HYF1 whole entry): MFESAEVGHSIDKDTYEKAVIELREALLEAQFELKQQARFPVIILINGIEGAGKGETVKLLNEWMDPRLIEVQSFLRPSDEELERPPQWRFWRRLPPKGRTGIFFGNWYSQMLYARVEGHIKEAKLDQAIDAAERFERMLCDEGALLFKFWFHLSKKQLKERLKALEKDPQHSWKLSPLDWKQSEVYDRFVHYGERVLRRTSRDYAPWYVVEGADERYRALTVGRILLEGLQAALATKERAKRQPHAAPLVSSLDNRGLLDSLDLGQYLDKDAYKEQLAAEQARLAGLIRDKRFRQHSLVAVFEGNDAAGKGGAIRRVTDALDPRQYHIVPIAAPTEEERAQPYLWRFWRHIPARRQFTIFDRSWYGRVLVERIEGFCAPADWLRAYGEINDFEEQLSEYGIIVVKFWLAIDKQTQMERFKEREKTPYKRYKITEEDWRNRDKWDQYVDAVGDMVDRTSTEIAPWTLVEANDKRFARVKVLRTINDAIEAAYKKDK

Turning to `O=C1OC2(c3ccccc31)c1ccc(O)c(O)c1Oc1c2ccc(O)c1O` [RT4 (gallein), gallein], the IC50 on P. aeruginosa PPK2A was determined as 16 ± 3 µM; on P. aeruginosa PPK2C, 165 ± 5 µM. Moreover, the “Biofilm formation, Mean Diff.” value is recorded as 0.1666 with P. aeruginosa PA14 [1] (setting [4]), 0.005375 in the data set with P. aeruginosa PA14 [1] (setting [5]), 0.08825 with P. aeruginosa PA14 [1] (setting [6]) and 0.08488 in the data set on P. aeruginosa PA14 [1] (setting [7]). Further, the biofilm formation result in the data set on P. aeruginosa PA14 [1] (WT, reduction dose dependent) is given as “reduced biofilm formation”; in the data set with P. aeruginosa PA14 [1] (ΔpolyP strain) it was “no significant effect”; in the data set on P. aeruginosa PA14 [1] (Δppk1 strain), “further decreased biofilm formation”; in the data set with P. aeruginosa PA14 [1] (Δppk2 strain), “further decreased biofilm formation”. For the same compound, in the data set with P. aeruginosa PA14 [2] (WT, 100 μM in agar), the flagellum-based swimming motility entry is given as “faithfully reproduced in WT P. aeruginosa the defect in flagellum-based swimming motility observed in the ΔpolyP strain”. The “swimming motility, Mean Diff.” value in the data set on P. aeruginosa PA14 [2] (setting [4]) is listed as 2; in the data set on P. aeruginosa PA14 [2] (setting [5]) it was -0.1; with P. aeruginosa PA14 [2] (setting [6]) it was 1.05; in the data set with P. aeruginosa PA14 [2] (setting [7]) it was 0.65. Moreover, the C. elegans survival result in the data set on P. aeruginosa is “significantly improved survival rates”. Also, in data set [3], the adverse effects entry is “no adverse effects”.
